From PubChem BioAssay (NCI)
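Briefly, cells in 96-well plates were exposed to five compound concentrations for 48 h, and endpoints were estimated by linear interpolation. TGI marks complete inhibition of growth.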

Experiments:
Assay in all cases: NCI-60 cell line screen, 48 h
HT29 colon = test system: HT29 colon
OVCAR-5 ovarian = test system: OVCAR-5 ovarian
UACC-257 melanoma = test system: UACC-257 melanoma
MDA-MB-231 breast = test system: MDA-MB-231 breast
SR leukemia = test system: SR leukemia
HCT-15 colon = test system: HCT-15 colon
SK-MEL-5 melanoma = test system: SK-MEL-5 melanoma
HCT-116 colon = test system: HCT-116 colon
RPMI-8226 leukemia = test system: RPMI-8226 leukemia
T-47D breast = test system: T-47D breast
RXF 393 renal = test system: RXF 393 renal
MOLT-4 leukemia = test system: MOLT-4 leukemia
SF-539 CNS = test system: SF-539 CNS
TK-10 renal = test system: TK-10 renal
SN12C renal = test system: SN12C renal
IGROV1 ovarian = test system: IGROV1 ovarian
MALME-3M melanoma = test system: MALME-3M melanoma
UACC-62 melanoma = test system: UACC-62 melanoma
MCF7 breast = test system: MCF7 breast
OVCAR-4 ovarian = test system: OVCAR-4 ovarian
NCI-H522 lung = test system: NCI-H522 lung
786-0 renal = test system: 786-0 renal
NCI-H23 lung = test system: NCI-H23 lung
EKVX NSCLC = test system: EKVX NSCLC
KM12 colon = test system: KM12 colon
HL-60(TB) leukemia = test system: HL-60(TB) leukemia
NCI-H226 lung = test system: NCI-H226 lung
ACHN renal = test system: ACHN renal
DU-145 prostate = test system: DU-145 prostate
HOP-92 NSCLC = test system: HOP-92 NSCLC
MDA-N = test system: MDA-N
SF-295 CNS = test system: SF-295 CNS
MDA-MB-435 = test system: MDA-MB-435
OVCAR-8 ovarian = test system: OVCAR-8 ovarian
SNB-75 CNS = test system: SNB-75 CNS
NCI/ADR-RES ovarian = test system: NCI/ADR-RES ovarian
SK-OV-3 ovarian = test system: SK-OV-3 ovarian
M14 melanoma = test system: M14 melanoma
UO-31 renal = test system: UO-31 renal
NCI-H460 lung = test system: NCI-H460 lung
CAKI-1 renal = test system: CAKI-1 renal
U251 CNS = test system: U251 CNS
A498 renal = test system: A498 renal
HS 578T breast = test system: HS 578T breast
SF-268 CNS = test system: SF-268 CNS
COLO 205 colon = test system: COLO 205 colon
PC-3 prostate = test system: PC-3 prostate
LOX IMVI melanoma = test system: LOX IMVI melanoma
HCC-2998 colon = test system: HCC-2998 colon
SNB-19 CNS = test system: SNB-19 CNS
OVCAR-3 ovarian = test system: OVCAR-3 ovarian
A549 NSCLC = test system: A549 NSCLC
K-562 leukemia = test system: K-562 leukemia
SK-MEL-28 melanoma = test system: SK-MEL-28 melanoma
SK-MEL-2 melanoma = test system: SK-MEL-2 melanoma
SW-620 colon = test system: SW-620 colon
HOP-62 NSCLC = test system: HOP-62 NSCLC
BT-549 breast = test system: BT-549 breast
CCRF-CEM leukemia = test system: CCRF-CEM leukemia

Measured: TGI

COc1cccc(N(CN2C(=O)CCC2C(=O)O)C(C)=O)c1 (stereo not drawn)
not listed: BT-549 breast | CCRF-CEM leukemia
> 100 µM: all other assays above

O=C(O)c1ccc(C2SCc3nc4ccccc4n32)cc1 (stereo not drawn)
not listed: T-47D breast | UACC-62 melanoma | MDA-MB-435 | NCI/ADR-RES ovarian | SK-OV-3 ovarian | COLO 205 colon | LOX IMVI melanoma
> 100 µM: all other assays above

CS(=O)(=O)CC(=O)c1ccccc1
not listed: MDA-MB-231 breast | HOP-92 NSCLC | CAKI-1 renal
> 100 µM: all other assays above

COc1ccc(C(=O)/C=C/c2ccc(OCCSCCCCCCCCCCSCCOc3ccc(/C=C/C(=O)c4ccc(OC)c(OC)c4)cc3)cc2)cc1OC
not listed: OVCAR-5 ovarian | RXF 393 renal | OVCAR-4 ovarian | NCI-H226 lung | HOP-92 NSCLC | NCI/ADR-RES ovarian | UO-31 renal | U251 CNS | SNB-19 CNS | OVCAR-3 ovarian | SK-MEL-2 melanoma
> 100 µM: all other assays above
